Tests used:
[1] = tested on: KU812; assay: Cell proliferation inhibition (MTS), KU812; format: cell-based, human; conditions: KU812, 72 h
Method: (§1) All cells were cultured in the media supplemented with 10% FBS in the temperature of 37° C., 5% CO2 and 95% humidity. All culture media were purchased from GIBCO.
(§2) • 1. Cells were harvested respectively during the logarithmic growth period and counted with hemocytometer. Cell viability was over 98% by trypan blue exclusion. • 2. Dilute cells with respective medium to achieve 1.11×10^5 cells/mL for LNCaP cells, 2.22×10^5 cells/mL for KU812 cells, 5.56×10^4 cells/mL for Panc-1 cells. • 3. Add 90 μL cell suspensions to 96-well plate, the final cell densities are 1×10^4 cells/well for LNCaP cells, 2×10^4 cells/well for KU812 cells, and […] cells/well for Panc-1 cells, respectively. • 4. The next day, dilute the test article or positive drugs with DMSO or PBS. • 5. Dispense 10 μL drug solution in each well (triplicate for each drug concentration). • 6. The plates were cultured for another 72 hours, then measured using MTS assay. • 7. Prepare MTS/PMS solution immediately prior to use, pipet 20 μL of the mixture into each well of the 96 well assay plate containing 100 μL culture medium. (The final reaction volume is 120 μL). • 8. Incubate the plate for 1-4 hours at 37° C. in a humidified, 5% CO2 atmosphere. • 9. Record the absorbance at 490 nm using Synergy2 Microplate Reader. Data Analysis:
(§3) The software of GraphPad Prism version 5 was used to calculate IC50. […]

[2] = tested on: NCI-H929; assay: Cell proliferation inhibition (MTS), NCI-H929; format: cell-based, human; conditions: NCI-H929, 72 hours
Method: (§4) All cells were cultured in media supplemented with 10% FBS except for which are marked specially, in the temperature of 37° C., 5% CO2 and 95% humidity. All culture media were purchased from GIBCO (USA, IMDM Cat. 12200-036; RPMI Medium 1640 Cat. 31800-022; 2-mercaptoethanol Cat. 21985-023).
(§5) • 1. The cells were harvested respectively during the logarithmic growth period and counted with hemocytometer. The cell viability was over 98% by trypan blue exclusion. • 2. Cell concentrations were adjusted to 2.22×10^5 or 1.11×10^5 or 5.56×10^4 cells/mL with respective medium. • 3. 90 μL cell suspensions were added to 96-well plates (triplicates for each cell concentration), the final cell densities were 2×10^4 or 1×10^4 or 5×10^3 cells/well. The density of 5×10^3 cells/well was used for the first test. The appropriate cell density was determined and adjusted according to the results of the first test. • 4. The next day, test article or positive drugs were dissolved with DMSO as stock solution at the concentration of 20 mM. • 5. 10 μL drug solution was dispensed in each well (triplicate for each drug concentration). • 6. Plates were cultured for another 72 hours, then measured by means of MTS assay. • 7. MTS/PMS solution was prepared immediately prior to use. […] Absorbance at 490 nm was recorded using SpectraMAX Plus microplate spectrophotometer. […]

[3] = biological target: Pim-2(h) (Homo sapiens, UniProt Q9P1W9); assay: Enzyme activity, ATP = Km, Pim-2(h); format: biochemical; conditions: 300 nM of compound, ATP concentration = Km
[4] = biological target: Pim-3(h) (Homo sapiens, UniProt Q86V86); assay: Enzyme activity, ATP = Km, Pim-3(h); format: biochemical; conditions: 300 nM of compound, ATP concentration = Km
[5] = biological target: Pim-1(h) (Homo sapiens, UniProt P11309); assay: Enzyme activity, ATP = Km, Pim-1(h); format: biochemical; conditions: 300 nM of compound, ATP concentration = Km
[6] = biological target: CK2(h) (Homo sapiens, UniProt P68400); assay: Enzyme activity, ATP = Km, CK2(h); format: biochemical; conditions: 300 nM of compound, ATP concentration = Km
[7] = tested on: RPMI-8226; assay: Cell proliferation inhibition (MTS), RPMI-8226; format: cell-based, human; conditions: RPMI 8226, 72 hours
Method: as §4, §5

[8] = tested on: Panc-1; assay: Cell proliferation inhibition (MTS), Panc-1; format: cell-based, human; conditions: Panc-1, 72 h
Method: as §1, §2, §3

[9] = biological target: CK1γ2(h) (Homo sapiens, UniProt P78368); assay: Enzyme activity, ATP = Km, CK1γ2(h); format: biochemical; conditions: 300 nM of compound, ATP concentration = Km
[10] = tested on: CK1(y); assay: Enzyme activity, ATP = Km, CK1(y); format: biochemical, yeast; conditions: 300 nM of compound, ATP concentration = Km

Pim-1(h), sequence (P11309 whole entry): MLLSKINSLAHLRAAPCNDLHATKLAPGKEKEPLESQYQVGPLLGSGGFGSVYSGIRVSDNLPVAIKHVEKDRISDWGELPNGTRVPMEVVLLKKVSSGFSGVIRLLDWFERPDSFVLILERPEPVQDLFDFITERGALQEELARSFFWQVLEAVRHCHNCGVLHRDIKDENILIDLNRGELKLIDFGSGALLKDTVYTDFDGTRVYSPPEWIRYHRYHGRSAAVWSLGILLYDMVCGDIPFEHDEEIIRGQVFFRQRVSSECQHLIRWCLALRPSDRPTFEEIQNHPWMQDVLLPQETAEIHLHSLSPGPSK
Pim-2(h), sequence (Q9P1W9 whole entry): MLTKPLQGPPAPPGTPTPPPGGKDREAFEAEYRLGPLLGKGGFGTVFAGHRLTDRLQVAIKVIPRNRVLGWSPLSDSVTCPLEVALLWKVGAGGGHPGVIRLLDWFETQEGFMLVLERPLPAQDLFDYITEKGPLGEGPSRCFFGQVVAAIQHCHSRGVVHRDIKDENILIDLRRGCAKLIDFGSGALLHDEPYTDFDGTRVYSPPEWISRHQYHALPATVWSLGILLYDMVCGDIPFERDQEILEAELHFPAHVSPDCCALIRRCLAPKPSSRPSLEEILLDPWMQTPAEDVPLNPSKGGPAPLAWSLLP
CK2(h), sequence (P68400 whole entry): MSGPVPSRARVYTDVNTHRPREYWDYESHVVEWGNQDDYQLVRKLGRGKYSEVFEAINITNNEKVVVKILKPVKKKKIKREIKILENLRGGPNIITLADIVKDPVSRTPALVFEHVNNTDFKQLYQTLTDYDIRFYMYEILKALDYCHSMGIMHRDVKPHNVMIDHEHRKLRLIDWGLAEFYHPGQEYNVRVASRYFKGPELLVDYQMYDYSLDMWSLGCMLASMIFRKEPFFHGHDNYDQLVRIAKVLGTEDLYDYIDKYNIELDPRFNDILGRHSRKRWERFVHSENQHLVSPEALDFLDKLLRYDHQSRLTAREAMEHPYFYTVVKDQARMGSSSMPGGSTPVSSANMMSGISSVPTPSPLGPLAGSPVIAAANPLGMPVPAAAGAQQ
CK2(h), sequence (P67870 whole entry partner): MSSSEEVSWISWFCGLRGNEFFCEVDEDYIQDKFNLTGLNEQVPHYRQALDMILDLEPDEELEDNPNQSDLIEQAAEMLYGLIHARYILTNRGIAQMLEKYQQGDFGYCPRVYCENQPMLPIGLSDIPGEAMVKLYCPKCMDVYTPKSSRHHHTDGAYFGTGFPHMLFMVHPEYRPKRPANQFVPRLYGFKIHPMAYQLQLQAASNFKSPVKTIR
CK1γ2(h), sequence (P78368 whole entry): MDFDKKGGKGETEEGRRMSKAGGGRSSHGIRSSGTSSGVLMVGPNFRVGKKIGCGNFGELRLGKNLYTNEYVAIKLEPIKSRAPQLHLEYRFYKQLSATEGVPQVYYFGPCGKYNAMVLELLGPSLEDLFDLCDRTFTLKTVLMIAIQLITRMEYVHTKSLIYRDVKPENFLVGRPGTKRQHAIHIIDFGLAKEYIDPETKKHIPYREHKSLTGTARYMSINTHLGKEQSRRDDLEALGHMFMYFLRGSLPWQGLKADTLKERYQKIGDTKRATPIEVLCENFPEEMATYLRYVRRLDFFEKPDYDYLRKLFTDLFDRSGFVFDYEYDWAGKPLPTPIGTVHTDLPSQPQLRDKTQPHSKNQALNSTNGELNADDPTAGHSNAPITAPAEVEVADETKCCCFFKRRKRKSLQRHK

NCC1CCN(c2cc(/C=C3\SC(=O)NC3=O)ncn2)CC1 [Compound 11268]
IC50 [1]: > 30 µM
IC50 [2]: > 30 µM
Percent Activity of Enzyme Pim-2(h) [3]: 108%
Percent Activity of Enzyme Pim-3(h) [4]: 80%
Percent Activity of Enzyme Pim-1(h) [5]: 115%
Percent Activity of Enzyme CK2(h) [6]: 85%
IC50 [7]: > 30 µM
IC50 [8]: > 30 µM
Percent Activity of Enzyme CK1γ2(h) [9]: 95%
Percent Activity of Enzyme CK1(y) [10]: 114%

From patent US8901145B2, “Aminopyrimidine kinase inhibitors” (Jasco Pharmaceuticals, LLC, priority 2011, dated 2014)
